Test results published in publication PMC10879502, “Linking ATP and allosteric sites to achieve superadditive binding with bivalent EGFR kinase inhibitors” (Communications Chemistry, 2024).
“And” between values parts separate entries of the source, which are not always exact repeats. Identical values can stand only once. Like-named read-outs stand apart in the source and are kept apart here.

Tests used:
WT EGFR kinase domain = target: T1, WT EGFR kinase domain (Homo sapiens, UniProt P00533); assay: HTRF KinEASE-TK kinase activity assay; format: biochemical
T1 construct: The EGFR kinase domain (residues 696–1022) was cloned into pTriEx; 6xHis (N, cleaved yes); GST (N, cleaved yes); made in house; host or cells: SF9 insect cells, baculovirus

[1] = target: T2, EGFR L858R (LR) kinase domain (Homo sapiens, UniProt P00533, L858R); assay: HTRF KinEASE-TK kinase activity assay; format: biochemical
T2 construct: The EGFR kinase domain (residues 696–1022) was cloned into pTriEx; 6xHis (N, cleaved yes); GST (N, cleaved yes); made in house; host or cells: SF9 insect cells, baculovirus

[2] = target: T3, EGFR L858R/T790M (LRTM) kinase domain (Homo sapiens, UniProt P00533, L858R/T790M); assay: HTRF KinEASE-TK kinase activity assay; format: biochemical; settings: for linking coefficients: limits estimated from LRTM IC50 values; for Linking coefficient E: LRTM IC50, upper limit; for activity: LRTM, read-out: percent inhibition
T3 construct: The EGFR kinase domain (residues 696–1022) was cloned into pTriEx; 6xHis (N, cleaved yes); GST (N, cleaved yes); made in house; host or cells: SF9 insect cells, baculovirus

[3] = target: T4, EGFR L858R/T790M/C797S (LRTMCS) kinase domain (Homo sapiens, UniProt P00533, C797S/L858R/T790M); assay: HTRF KinEASE-TK kinase activity assay; format: biochemical
T4 construct: The EGFR kinase domain (residues 696–1022) was cloned into pTriEx; 6xHis (N, cleaved yes); GST (N, cleaved yes); made in house; host or cells: SF9 insect cells, baculovirus

[4] = tested on: EGFR phosphorylation (pY1068) in H1975 cells; assay: Western blot; format: cell-based, human; settings: H1975, 6 h
Protocol: H1975, H3255, H3255GR and HCC827 lung adenocarcinoma cells (obtained from Dr. Pasi Jänne in Dana-Farber Cancer Institute, 2022) were cultured in RPMI 1640 media (Corning, 1004-CV) supplemented with 10% FBS (Tissue Culture Biologicals, 35-010-CV) and 1% penicillin-streptomycin (P/S, Corning, 30-002-CI). All cell lines were tested negative for Mycoplasma using Myco-Sniff-Rapid™ Mycoplasma Luciferase Detection Kit Plus PCR Primer Set (MP biomedicals, 0930504-CF) and were passaged and/or used for no longer than 4 weeks for all experiments H1975 and HCC-827 cells were seeded in 6-well plates with 400,000 cells per well and incubated overnight. H3255 and H3255GR cells were seeded in 12-well plates with 200,000 cells per well and were grown to confluency after 48 h. Culture medium was removed, cells washed with PBS, and lysed with lysis buffer containing 5 M NaCl, 1 M TRIS pH 8.0, 10% SDS, 10% Triton X-100 and a tablet of protease and phosphatase inhibitor. Protein lysate concentration was analyzed using Pierce BCA kit (ThermoFisher, 23225). Protein samples (10 µg) were resolved on hand-cast Criterion Tris-HCl protein gels. Primary antibodies used; phospho-EGFR (Tyr1068; #2234, 1:1,000), EGFR (#4267; 1:1,000), phospho-AKT (Ser473; #4060, 1:1,000), AKT (#9272, 1:1,000), phospho-ERK1/2 (Thr202/Tyr204; #4370, 1:1,000), and ERK1/2 (#4695, 1:1,000) antibodies; were purchased from Cell Signaling Technology. Secondary Goat anti-rabbit IgG starbright blue 700 (Biorad, 64484700) and Anti-tubulin hFAB Rhodamine Tubulin (Bio-Rad, 64512248). Western blots were visualized with the ChemiDoc MP imager (Bio-Rad) utilizing the Image Lab Touch Software (version 2.4.0.03). All Western blot images are representatives of at least 3 independent replicate experiments.

[5] = tested on: Ba/F3 cells, wildtype EGFR; settings: Ba/F3 ref 4 Wittlinger and Heppner; read-out: EGFR EC50, wt; cited from earlier work
Ba/F3 cells, L858R EGFR = settings: Ba/F3 ref 4 Wittlinger and Heppner; read-out: EGFR EC50, LR; cited from earlier work
[6] = tested on: Ba/F3 cells, LR/TM/CS EGFR; settings: Ba/F3 ref 4 Wittlinger and Heppner; cited from earlier work
[7] = enzyme 10 nM, ATP 100 µM, read-out: Biochemical EGFR IC50, WT
[8] = enzyme 0.1 nM, ATP 100 µM, read-out: Biochemical EGFR IC50, LR
[9] = Table S1, ATP 100 µM, read-out: IC50, LRTM
[10] = enzyme 0.02 nM, ATP 100 µM, read-out: Biochemical EGFR IC50, LRTM
[11] = enzyme 0.02 nM, ATP 100 µM, read-out: Biochemical EGFR IC50, LRTMCS

CSc1nc(-c2cccc(CN3C(=O)c4ccccc4Nc4ccc(F)cc43)c2)c(-c2ccnc(NC(C)=O)c2)[nH]1 [Compound 1]
IC50 (WT EGFR kinase domain; [7]): > 10000 nM
IC50 (WT EGFR kinase domain; read-out: IC50, WT): ≥ 1000 nM
activity at 3.181 pM ([1]; LR, [Inhibitor] 0.00318089 nM, read-out: percent inhibition): 103%
activity at 7.783 pM ([1]; LR, [Inhibitor] 0.00778314 nM, read-out: percent inhibition): 94.6%
activity at 19.04 pM ([1]; LR, [Inhibitor] 0.0190441 nM, read-out: percent inhibition): 99.4%
activity at 46.6 pM ([1]; LR, [Inhibitor] 0.0465979 nM, read-out: percent inhibition): 97.2%
activity at 0.000114018 µM ([1]; LR, [Inhibitor] 0.114018 nM, read-out: percent inhibition): 94.5%
activity at 0.000278983 µM ([1]; LR, [Inhibitor] 0.278983 nM, read-out: percent inhibition): 83%
activity at 0.000682626 µM ([1]; LR, [Inhibitor] 0.682626 nM, read-out: percent inhibition): 67.9%
activity at 0.00167028 µM ([1]; LR, [Inhibitor] 1.67028 nM, read-out: percent inhibition): 39.3%
activity at 0.0040869 µM ([1]; LR, [Inhibitor] 4.0869 nM, read-out: percent inhibition): 19.2%
activity at 0.01 µM ([1]; LR, [Inhibitor] 10 nM, read-out: percent inhibition): 9.7%
activity at 1.3 pM ([1]; LR, [Inhibitor] […], read-out: percent inhibition): 102%
IC50 [1, 8]: 1300 ± 100 nM
IC50 ([1]; read-out: IC50, LR): ≥ 1000 nM
IC50 [2, 9]: ≥ 1 µM
IC50 [2, 10]: > 10 µM
linking coefficients [2]: > 2e+07 M⁻¹
activity at 3.181 pM ([3]; LRTMCS, [Inhibitor] 0.00318089 nM, read-out: percent inhibition): 103%
activity at 7.783 pM ([3]; LRTMCS, [Inhibitor] 0.00778314 nM, read-out: percent inhibition): 94.6%
activity at 19.04 pM ([3]; LRTMCS, [Inhibitor] 0.0190441 nM, read-out: percent inhibition): 99.4%
activity at 46.6 pM ([3]; LRTMCS, [Inhibitor] 0.0465979 nM, read-out: percent inhibition): 97.2%
activity at 0.000114018 µM ([3]; LRTMCS, [Inhibitor] 0.114018 nM, read-out: percent inhibition): 94.5%
activity at 0.000278983 µM ([3]; LRTMCS, [Inhibitor] 0.278983 nM, read-out: percent inhibition): 83%
activity at 0.000682626 µM ([3]; LRTMCS, [Inhibitor] 0.682626 nM, read-out: percent inhibition): 67.9%
activity at 0.00167028 µM ([3]; LRTMCS, [Inhibitor] 1.67028 nM, read-out: percent inhibition): 39.3%
activity at 0.0040869 µM ([3]; LRTMCS, [Inhibitor] 4.0869 nM, read-out: percent inhibition): 19.2%
activity at 0.01 µM ([3]; LRTMCS, [Inhibitor] 10 nM, read-out: percent inhibition): 9.7%
activity at 1.3 pM ([3]; LRTMCS, [Inhibitor] […], read-out: percent inhibition): 102%
IC50 [3, 11]: > 10000 nM
IC50 ([3]; read-out: IC50, LRTMCS): ≥ 1000 nM
suppression of EGFR phosphorylation [4]: limited ability to suppress phosphorylation

CCc1nc(-c2cccc(NC(=O)c3cccc4c3NC(=O)c3ccccc3N4)c2)c(-c2ccnc(NC(C)=O)c2)[nH]1 [Compound 3]
IC50 (WT EGFR kinase domain; [7]): < 10 nM
activity ([1]; LR, [Inhibitor] 1.3e-5 nM, read-out: percent inhibition): 95.4% and 96.9% and 90.5%
activity ([1]; LR, [Inhibitor] 3.18e-5 nM, read-out: percent inhibition): 86.7% and 90.8% and 88.7%
activity ([1]; LR, [Inhibitor] 7.78e-5 nM, read-out: percent inhibition): 65.8% and 67.4% and 61.5%
activity at 190.4 fM ([1]; LR, [Inhibitor] 0.000190441 nM, read-out: percent inhibition): 34.4%
activity at 466 fM ([1]; LR, [Inhibitor] 0.000465979 nM, read-out: percent inhibition): 15.1%
activity at 1.14 pM ([1]; LR, [Inhibitor] 0.00114018 nM, read-out: percent inhibition): 9.97%
activity at 2.79 pM ([1]; LR, [Inhibitor] 0.00278983 nM, read-out: percent inhibition): 5.05%
activity at 6.826 pM ([1]; LR, [Inhibitor] 0.00682626 nM, read-out: percent inhibition): 3.24%
activity at 16.7 pM ([1]; LR, [Inhibitor] 0.0167028 nM, read-out: percent inhibition): 1.45%
IC50 [1, 8]: 1.2 ± 0.09 nM
Linking coefficient E ([2]; ATP fragment 5, allosteric fragment 10): < 0.88 M⁻¹
Linking coefficient E ([2]; ATP fragment 6, allosteric fragment 10): < 0. 51 M-1
activity ([2]; [Inhibitor] 1.3e-5 nM): 80.3% and 89% and 81.1%
activity ([2]; [Inhibitor] 3.18e-5 nM): 69.3% and 75.7% and 76.3%
activity ([2]; [Inhibitor] 7.78e-5 nM): 34.1% and 36.2% and 33.7%
activity ([2]; [Inhibitor] 0.000190441 nM, 190.4 fM): 16.3% and 13.5%
activity ([2]; [Inhibitor] 0.000465979 nM, 466 fM): 5.63% and 5.16%
activity ([2]; [Inhibitor] 0.00114018 nM, 1.14 pM): 4.05% and 3.39%
activity ([2]; [Inhibitor] 0.00278983 nM, 2.79 pM): 3.12% and 3.28%
activity ([2]; [Inhibitor] 0.00682626 nM, 6.826 pM): 2.4% and 2.45%
IC50 ([2]; Table S1, read-out: IC50, LRTM): 5.1e-05 to 6.4e-05 µM and 5.1e-05 to 5.9e-05 µM
IC50 [2, 10]: 5.1e-05 ± 5e-06 µM
linking coefficients [2]: 0.5 to 1.0 M⁻¹
activity ([3]; LRTMCS, [Inhibitor] 1.3e-5 nM, read-out: percent inhibition): 95.4% and 96.9% and 90.5%
activity ([3]; LRTMCS, [Inhibitor] 3.18e-5 nM, read-out: percent inhibition): 86.7% and 90.8% and 88.7%
activity ([3]; LRTMCS, [Inhibitor] 7.78e-5 nM, read-out: percent inhibition): 65.8% and 67.4% and 61.5%
activity at 190.4 fM ([3]; LRTMCS, [Inhibitor] 0.000190441 nM, read-out: percent inhibition): 34.4%
activity at 466 fM ([3]; LRTMCS, [Inhibitor] 0.000465979 nM, read-out: percent inhibition): 15.1%
activity at 1.14 pM ([3]; LRTMCS, [Inhibitor] 0.00114018 nM, read-out: percent inhibition): 9.97%
activity at 2.79 pM ([3]; LRTMCS, [Inhibitor] 0.00278983 nM, read-out: percent inhibition): 5.05%
activity at 6.826 pM ([3]; LRTMCS, [Inhibitor] 0.00682626 nM, read-out: percent inhibition): 3.24%
activity at 16.7 pM ([3]; LRTMCS, [Inhibitor] 0.0167028 nM, read-out: percent inhibition): 1.45%
IC50 [3, 11]: 0.063 ± 0.005 nM
IC50 ([3]; read-out: IC50, LRTMCS): 0.051 to 0.064 nM
suppression of EGFR phosphorylation [4]: also effective in H1975 cells, however to a lesser extent than 4

CSc1nc(-c2ccc(F)cc2)c(-c2ccnc(NC(C)=O)c2)[nH]1 [Compound 5, reference compound]
IC50 [2, 9]: 6 to 10 µM and ≥ 6 µM
IC50 [2, 10]: 5.8 ± 0.3 µM
IC50 [3, 11]: 6000 ± 500 nM
IC50 ([3]; read-out: IC50, LRTMCS): 6000 to 10000 nM

C=CC(=O)Nc1ccc(OC)c(Nc2cc(-c3[nH]c(SC)nc3-c3ccc(F)cc3)ccn2)c1 [Compound 7]
EC50 [5]: 20 ± 6 nM
EC50 (Ba/F3 cells, L858R EGFR): < 1 nM
EC50 [6]: 1600 ± 200 nM

O=C1c2cc(F)ccc2Nc2ccccc2N1Cc1ccccc1 [Compound 9, reference compound]
IC50 (WT EGFR kinase domain; [7]): > 1000 nM
IC50 [2, 10]: 0.052 µM
IC50 [3, 11]: 39 to 59 nM

O=C1Nc2c(cccc2C(=O)Nc2ccccc2)Nc2ccccc21 [Compound 10]
IC50, LRTM ([2]; Table S1, ATP 100 µM): virtually inactive
IC50 [2, 9]: ≥ 10 µM

O=C1Nc2c(cccc2C(=O)Nc2nccs2)Nc2ccccc21 [Compound 11]
IC50 [2, 9]: ≥ 10 µM

COc1ccc2c(c1)C(=O)Nc1c(cccc1C(=O)Nc1nccs1)N2 [Compound 12]
IC50 [2, 9]: ≥ 10 µM
